Laboratory results reported in ChEMBL document CHEMBL1201862, “PubChem BioAssay data set” (2004).
Activity calls are given as the source filed them.

Columns and labels:
[1] = cytotoxicity in HEK-293T cells, dose response, cytotoxicity control for TCR NF-kB inhibitor project, luminescence, T-cell screen hits (AID 489026); format: functional, cell-based;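 also: cells exposed to compound about 14 hours before the viability readout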
INS1 = test: beta cell apoptosis inhibitors, cytokine rescue, dose response, luminescence, retest (AID 449756); format: functional, cell-based; settings: Rattus norvegicus;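 also: cell death triggered by IL-1 beta plus TNF-alpha plus IFN-gamma mixture; protective hits raise ATP signal compared with cytokine alone wells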
Galanin receptor type 3 = molecular target: T1, Galanin receptor type 3 (Homo sapiens, UniProt O60755); test: Fluorescence-based cell-based primary high throughput dose response assay to identify antagonists of the Galanin Receptor 3 (GalR3).; format: functional
T1 sequence (O60755 whole entry): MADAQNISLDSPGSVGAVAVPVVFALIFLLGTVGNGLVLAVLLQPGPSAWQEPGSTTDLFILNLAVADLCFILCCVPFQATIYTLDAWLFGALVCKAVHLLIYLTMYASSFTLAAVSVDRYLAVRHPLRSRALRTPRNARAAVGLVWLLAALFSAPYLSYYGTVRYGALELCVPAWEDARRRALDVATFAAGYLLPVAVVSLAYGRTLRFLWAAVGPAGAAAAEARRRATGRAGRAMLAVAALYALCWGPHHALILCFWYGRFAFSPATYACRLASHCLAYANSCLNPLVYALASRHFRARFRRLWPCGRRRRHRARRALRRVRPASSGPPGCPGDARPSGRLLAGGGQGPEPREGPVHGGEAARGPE

cells = format: functional, cell-based; settings: HEK-CNG
[2] = molecular target: T2, COUP transcription factor 2 (Homo sapiens, UniProt P24468); test: Luminescence-based cell-based high throughput dose response assay to identify inhibitors of COUP-TFII (NR2F2).; format: functional;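 also: HEK293 cells transiently cotransfected with COUP-TFII expression vector and reporter; luciferase reporter luminescence driven by COUP-TFII from the pX2-168 reporter plasmid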
T2 sequence (P24468 whole entry): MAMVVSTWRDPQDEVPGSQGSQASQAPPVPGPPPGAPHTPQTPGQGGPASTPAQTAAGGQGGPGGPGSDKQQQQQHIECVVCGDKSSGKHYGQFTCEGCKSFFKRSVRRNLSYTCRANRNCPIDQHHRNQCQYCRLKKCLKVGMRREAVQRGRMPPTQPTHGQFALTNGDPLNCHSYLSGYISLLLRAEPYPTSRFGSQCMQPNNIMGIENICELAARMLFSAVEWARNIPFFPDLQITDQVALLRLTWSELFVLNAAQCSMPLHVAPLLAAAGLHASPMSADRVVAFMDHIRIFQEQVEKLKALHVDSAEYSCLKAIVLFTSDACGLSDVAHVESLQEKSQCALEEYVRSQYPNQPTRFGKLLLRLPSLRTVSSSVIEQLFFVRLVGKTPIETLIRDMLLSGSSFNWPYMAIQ

Paired box protein Pax-8 = Paired box protein Pax-8 (Homo sapiens, UniProt Q06710); test: inhibitors of PAX8-driven TPO luciferase reporter, dose response, RMG-I cells, cherry-pick (AID 687027); format: functional, cell-based;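 also: luciferase reporter driven by Pax8 target thyroperoxidase promoter measured by SteadyGlo luminescence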
Chain of Paired box protein Pax-8 (Q06710 whole entry): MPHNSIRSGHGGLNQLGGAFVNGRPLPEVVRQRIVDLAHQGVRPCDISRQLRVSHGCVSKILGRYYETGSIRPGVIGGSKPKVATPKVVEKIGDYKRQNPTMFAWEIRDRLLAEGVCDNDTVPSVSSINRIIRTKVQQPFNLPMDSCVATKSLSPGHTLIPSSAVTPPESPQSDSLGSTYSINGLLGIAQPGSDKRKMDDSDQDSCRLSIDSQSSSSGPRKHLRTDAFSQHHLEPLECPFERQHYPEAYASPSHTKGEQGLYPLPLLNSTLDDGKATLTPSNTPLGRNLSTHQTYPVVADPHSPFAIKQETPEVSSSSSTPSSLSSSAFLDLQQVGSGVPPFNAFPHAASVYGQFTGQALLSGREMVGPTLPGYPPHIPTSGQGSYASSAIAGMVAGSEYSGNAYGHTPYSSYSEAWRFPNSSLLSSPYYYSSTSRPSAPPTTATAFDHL

[3] = cytotoxicity in OVCAR8 ovarian cancer cells, dose response, PAX8 project, cell-based, plate reader, dry powder samples (AID 743197); format: functional; settings: OVCAR-8
[4] = P. falciparum Dd2 growth inhibitors, dose response, SYBR Green, cherry-picked samples (AID 1159567); format: functional, cell-based
[5] = T. cruzi growth inhibition in host cells, dose response, cell-based, plate reader, dry powder, set 2 (AID 652275); format: functional
[6] = HEK293 cell cytotoxicity, dose response, cytotoxicity control, cherry-picks, set 5 (AID 1053117); format: functional, cell-based
[7] = P. falciparum 3D7-ScDHODH growth inhibitors, dose response, SYBR Green, dry powder samples (AID 1159570); format: functional, cell-based;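 also: parasite growth measured after 72 hours of compound exposure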
[8] = HepG2 cell cytotoxicity, dose response, cytotoxicity control, plate reader, dry powder samples (AID 1159569); format: functional, cell-based;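 also: inhibitor potency with signal falling toward the positive control level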
[9] = P. falciparum Dd2 growth inhibitors, dose response, SYBR Green, dry powder samples (AID 1159566); format: functional, cell-based;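 also: potency for growth inhibition with lower SYBR green DNA signal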
[10] = P. falciparum ATP4 D1247Y mutant growth inhibitors, dose response, NITD609-resistant line, SYBR Green, dry powder (AID 1159571); format: functional, cell-based;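 also: parasites synchronized at ring stage by sorbitol before testing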
[11] = HepG2 cell cytotoxicity, dose response, cytotoxicity control, cherry-picked samples (AID 1159577); format: functional, cell-based
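For EC50 in this document: target is galanin receptor GalR3 read with a cAMP biosensor in HEK293 cells.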

Cc1cc(C)c(CN2CCN(C(=O)Cn3cnc4c(OCc5ccccc5)ncnc43)CC2)c(C)c1
IC50 [1]: > 80 µM (inactive)
AC50 (INS1): 3.51 µM (active)
IC50 (Galanin receptor type 3): 2.86 µM (active)
EC50 (cells): > 29.9 µM (inactive)
IC50 [2]: 5.99 µM (active)

C[C@H]1CN([C@@H](C)CO)C(=O)c2c(c3ccccc3n2C)-c2ccccc2CO[C@@H]1CN(C)S(=O)(=O)c1cccc(F)c1
AC50 (Paired box protein Pax-8): 11.6 µM (active)
AC50 [3]: 37.3 µM (active)
AC50 [4]: 4.88 µM (active)

COc1cccc(-c2ccc([C@H]3[C@H](CO)N4CCCCN(C(=O)Cc5ccncc5)C[C@@H]34)cc2)c1
AC50 [5]: 2.13 µM (active)

CC(C)(O)C#Cc1cccc(-c2nc(C(=O)NCc3ccc4c(c3)OCO4)cc3c2[C@H](CCO)N([S+]([O-])C(C)(C)C)C3)c1 (stereo partly drawn)
AC50 [5]: 2.44 µM (active)

C[C@H](CO)N1C[C@H](C)[C@@H](CN(C)C(=O)c2cccc(F)c2)Oc2ncc(-c3ccccc3)cc2C1=O
AC50 [6]: > 52 µM (inactive)

CC(C)N1C[C@H](C)[C@@H](CN(C)Cc2ccc(Oc3ccccc3)cc2)Oc2c(cccc2-c2nn[nH]n2)C1=O
AC50 [5]: 7.34 µM (active)

CCC(=O)N1CC2(CCN(C(=O)Nc3ccccc3F)CC2)c2c([nH]c3cc(OC)ccc23)[C@H]1CO
AC50 [7]: 1.2 µM (active)
AC50 [8]: 50.4 µM (active)
AC50 [4]: 1.24 µM (active)
AC50 [9]: 1.1 µM (active)
AC50 [10]: 0.934 µM (active)

C[C@H]1CN([C@@H](C)CO)C(=O)c2cc(C#CCc3ccccc3)cnc2O[C@@H]1CN(C)CC1CCCC1
AC50 [4]: 4.29 µM (active)
AC50 [11]: 11.2 µM (active)

COc1ccccc1C#Cc1ccc([C@H]2[C@@H](C#N)N(C(=O)C3CCCC3)[C@@H]2CO)cc1
AC50 [4]: 5.1 µM (active)
AC50 [11]: > 39 µM (inactive)

CCC(=O)N1[C@H](CO)[C@H](c2ccc(C3=CCCC3)cc2)[C@H]1CNCC1CCCC1
AC50 [4]: 3.77 µM (active)
AC50 [11]: > 39 µM (inactive)

COc1ccc(NC(=O)Nc2cccc3c2O[C@H](CN(C)C(=O)Nc2cccc4ccccc24)[C@H](C)CN([C@@H](C)CO)C3=O)cc1
AC50 [7]: 1.64 µM (active)
AC50 [8]: > 100 µM (inactive)
AC50 [4]: 2.54 µM (active)
AC50 [9]: 0.547 µM (active)
AC50 [10]: 0.971 µM (active)
